Measured values published in patent publication US20240299377A1, “METHODS AND COMPOSITIONS FOR TREATING IRON DISORDERS” (BeyondSpring Pharmaceuticals, Inc., priority 2019, published 2024).

Tested on: plasma haptoglobin levels
Assay: Plasma haptoglobin levels in non-metastatic breast cancer patients receiving TAC plus plinabulin (hematology safety assessments)
Type: in vivo, human
From the text: Method. Non-metastatic Breast Cancer patients receiving TAC (taxotere, doxorubicin, cyclophosphamide) also received plinabulin at a dose of 10 (n=15), 20 (n=15) or 30 (n=12) mg/m^2. Hematology safety assessments were done at predose, and post-dose plinabulin at Day 2, 3, 6, 7, 8, 9, 10, 11, 12, 13 and 15, as predefined prospectively per protocol. Plinabulin was given on Day 1 as a single dose per 21-day cycle.

For CC(C)(C)c1[nH]cnc1/C=c1\[nH]c(=O)/c(=C/c2ccccc2)[nH]c1=O [Plinabulin, (3Z,6Z)-3-Benzylidene-6-{[5-(2-methyl-2-propanyl)-1H-imidazol-4-yl]methylene}-2,5-piperazinedione], the “dose comparison for increasing plasma haptoglobin levels” value (30 mg/m^2 vs lower doses (10, 20 mg/m^2), p<0.01) was “most effective dose”, the “mean (SD) increase of maximum haptoglobin levels from baseline” value (Plinabulin 30 mg/m^2 single dose on Day 1 of 21-day cycle with TAC, baseline mean (SD) 1.32 (0.453) g/L, p<0.0005) was 1.61 (1.29) g/L and the “fold increase of maximum haptoglobin levels” value (Plinabulin 30 mg/m^2 single dose, versus baseline) was “more than 2 fold”. The “duration of haptoglobin increase” value (single dose 30 mg/m^2, FIG. 1) was over 3 weeks and the “time to haptoglobin (Hp) increase after plinabulin dosing” value (single dose 30 mg/m^2, P<0.03) was at most 2 days.
